Assay results from article PMC11494503, “Next Generation SICLOPPS Screening for the Identification of Inhibitors of the HIF-1α/HIF-1β Protein–Protein Interaction” (ACS Chemical Biology, 2024).

System: HIF-1
Assay: HIF-1-dependent luciferase reporter assay in U2OS-HRE-Luc cells in hypoxia
Assay type: cell-based, human
Conditions: 16 h in hypoxia; for reduction in luminescence: 40 μM
Method: HIF Luciferase Reporter Assays
Assays were conducted in previously reported U2OS-HRE-Luciferase (U2OS-HRE-Luc) cells.2 Upon reaching 80-90% confluency, U2OS-HRE-Luc were plated (10 000 cells/well) in 96-well plates (Perkin-Elmer) and incubated in a cell incubator for 16 h. The cells were treated with cyclic peptide at […]
manufacturer’s protocol. […] The

Row | Compound | luciferase signal reduction (20 μM) [%] | reduction in luminescence [%] | IC50 (multiple doses, read-out: IC50 of reduction in the hypoxia-mediated luciferase signal) [µM]
1 | CC(C)C[C@@H]1NC(=O)[C@H](CS)NC(=O)[C@H](Cc2ccccc2)NC(=O)[C@H](CC(C)C)NC(=O)[C@H](CC(C)C)NC(=O)[C@H](CSSC[C@H](N)C(=O)NCC(=O)N[C@@H](CCCNC(=N)N)C(=O)N[C@@H](CCCCN)C(=O)N[C@@H](CCCCN)C(=O)N[C@@H](CCCNC(=N)N)C(=O)N[C@@H](CCCNC(=N)N)C(=O)N[C@@H](CCC(N)=O)C(=O)N[C@@H](CCCNC(=N)N)C(=O)N[C@@H](CCCNC(=N)N)C(=O)N[C@@H](CCCNC(=N)N)C(=O)N2CCC[C@H]2C(=O)N2CCC[C@H]2C(=O)N[C@@H](CCC(N)=O)C(=O)O)NC1=O [Tat-cyclo-CLLFCL] | 70 | 84 | 13 ± 4
2 | Tat-cyclo-CLLFVY [reference compound] | – | 28 | –
